The source of these data is US7964624B1, “Inhibitors of serine proteases” (priority 2005, dated 2011).

This assay deals with T1, HCV NS3 protease domain (Hepatitis C virus genotype 1b, UniProt Q9WMX2).
T1 construct: The first 181 amino acids of NS3 (residues 1027-1207 of the viral polyprotein); hexa-histidine (C); made in house; host or cells: E. coli BL21/DE3 pLysS
T1 sequence (Q9WMX2 1027-1207, other chains not shown): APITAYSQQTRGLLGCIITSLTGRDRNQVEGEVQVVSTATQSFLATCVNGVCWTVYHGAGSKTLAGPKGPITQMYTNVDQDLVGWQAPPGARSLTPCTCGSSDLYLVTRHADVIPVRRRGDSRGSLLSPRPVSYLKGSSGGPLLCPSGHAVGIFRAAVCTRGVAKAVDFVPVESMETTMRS
As to the kind of experiment: biochemical. The conditions noted are these: Enzyme Assay 1 (HCV NS3 Protease Domain Peptide Cleavage Assay) activity, apparent Ki class.
Take `CCC[C@H](NC(=O)[C@@H]1C[C@]2(CC(c3cccc(Cl)c3)=NO2)CN1C(=O)[C@@H](NC(=O)CCc1ccc(F)cc1)C(C)(C)C)C(=O)C(=O)NC1CC1` [Compound 7]: the Ki was > 500 nM.
In the case of `CCC[C@H](NC(=O)[C@@H]1C[C@]2(CC(c3ccc(OC)c(OC4CCCC4)c3)=NO2)CN1C(=O)[C@@H](NC(=O)O[C@H]1CCOC1)C(C)(C)C)C(=O)C(=O)NC1CC1` [Compound 8] it was > 500 nM; in that of `CCC[C@H](NC(=O)[C@@H]1C[C@]2(CC(c3ccc(C)c(F)c3)=NO2)CN1C(=O)O[C@H]1CCOC1)C(=O)C(=O)NC1CC1` [Compound 11], > 500 nM.
In the case of `CCC[C@H](NC(=O)[C@@H]1C[C@]2(CC(c3cccc(Cl)c3)=NO2)CN1C(=O)[C@@H](NC(=O)OCC1CCCC1)C(C)(C)C)C(=O)C(=O)NC1CC1` [Compound 14] it was > 500 nM; in that of `CCC[C@H](NC(=O)[C@@H]1C[C@]2(CC(c3ccc(OC)c(Cl)c3)=NO2)CN1C(=O)[C@@H](NC(=O)O[C@H]1CCOC1)C(C)(C)C)C(=O)C(=O)NC1CC1` [Compound 15], 100 to 500 nM.
Under `CCC[C@H](NC(=O)[C@@H]1C[C@]2(CC(c3ccc(OC)cc3)=NO2)CN1C(=O)[C@@H](NC(=O)CC1CCOCC1)C(C)(C)C)C(=O)C(=O)NC1CC1` [Compound 16] stands > 500 nM.
As for `CCC[C@H](NC(=O)[C@@H]1C[C@]2(CC(c3cccc(Cl)c3)=NO2)CN1C(=O)[C@@H](NC(=O)C1(O)CCCC1)C(C)(C)C)C(=O)C(=O)NC1CC1` [Compound 20], the Ki was > 500 nM.
On to `CCC[C@H](NC(=O)[C@@H]1C[C@]2(CC(c3cccc(F)c3)=NO2)CN1C(=O)[C@@H](NC(=O)O[C@H]1CCOC1)C(C)(C)C)C(=O)C(=O)NC1CC1` [Compound 24], for which the Ki lay in the range of 100 to 500 nM.
Under `CCC[C@H](NC(=O)[C@@H]1C[C@]2(CC(c3cccc(Cl)c3)=NO2)CN1C(=O)[C@@H](NC(=O)OCC1CCC1)C(C)(C)C)C(=O)C(=O)NC1CC1` [Compound 27] stands 100 to 500 nM; under `CCC[C@H](NC(=O)[C@@H]1C[C@]2(CC(c3ccc(Cl)c(Cl)c3)=NO2)CN1C(=O)[C@@H](NC(=O)O[C@H]1CCOC1)C(C)(C)C)C(=O)C(=O)NC1CC1` [Compound 32], 100 to 500 nM; under `CCC[C@H](NC(=O)[C@@H]1C[C@]2(CC(c3cccc(Cl)c3)=NO2)CN1C(=O)[C@@H](NC(=O)NC1CCCCC1)C(C)(C)C)C(=O)C(=O)NC1CC1` [Compound 33], < 100 nM.
Under `CCC[C@H](NC(=O)[C@@H]1C[C@]2(CC(c3ccc(C)c(C)c3)=NO2)CN1C(=O)[C@@H](NC(=O)O[C@H]1CCOC1)C(C)(C)C)C(=O)C(=O)NC1CC1` [Compound 36] stands 100 to 500 nM; under `CCC[C@H](NC(=O)[C@@H]1C[C@]2(CC(c3cccc(Cl)c3)=NO2)CN1C(=O)[C@@H](NC(=O)CC1CCOCC1)C1CCCCC1)C(=O)C(=O)NC1CC1` [Compound 37], > 500 nM.
Under `CCC[C@H](NC(=O)[C@@H]1C[C@]2(CC(c3cccc(Cl)c3)=NO2)CN1C(=O)[C@@H](NC(=O)OCc1ccccc1Cl)C(C)(C)C)C(=O)C(=O)NC1CC1` [Compound 39] stands 100 to 500 nM; under `CCC[C@H](NC(=O)[C@@H]1C[C@]2(CC(c3cncc(Br)c3)=NO2)CN1C(=O)[C@@H](NC(=O)CC1CCCCC1)C(C)(C)C)C(=O)C(=O)NC1CC1` [Compound 41], < 100 nM; under `CCC[C@H](NC(=O)[C@@H]1C[C@]2(CC(c3cccc(Cl)c3)=NO2)CN1C(=O)[C@@H](NC(=O)CCC(C)=O)C(C)(C)C)C(=O)C(=O)NC1CC1` [Compound 44], 100 to 500 nM.
For `CCC[C@H](NC(=O)[C@@H]1C[C@]2(CC(c3ccc(CC)cc3)=NO2)CN1C(=O)O[C@H]1CCOC1)C(=O)C(=O)NC1CC1` [Compound 47], the Ki was > 500 nM.
Under `CCC[C@H](NC(=O)C1C[C@]2(CC(c3ccc4c(c3)OCO4)=NO2)CN1C(=O)c1ccc[nH]1)C(=O)C(=O)NC1CC1` (stereo partly shown) [Compound 51] stands > 500 nM; under `CCC[C@H](NC(=O)C1C[C@]2(CC(c3ccc(C(F)(F)F)cc3)=NO2)CN1C(=O)[C@@H](NC(=O)O[C@H]1CCOC1)C(C)(C)C)C(=O)C(=O)NC1CC1` (stereo partly shown) [Compound 52], 100 to 500 nM; under `CCC[C@H](NC(=O)[C@@H]1C[C@]2(CC(c3ccccc3)=NO2)CN1C(=O)CC1CCN(Cc2c(Cl)cccc2Cl)CC1)C(=O)C(=O)NC1CC1` [Compound 53], > 500 nM.
As for `CCC[C@H](NC(=O)[C@@H]1C[C@]2(CC(c3ccc(Cl)cc3)=NO2)CN1C(=O)[C@@H](NC(=O)CC1CCCCC1)C(C)(C)C)C(=O)C(=O)NC1CC1` [Compound 55], the Ki is 100 to 500 nM.
Under `CCC[C@H](NC(=O)[C@@H]1C[C@]2(CC(C3CCCC3)=NO2)CN1C(=O)[C@@H](NC(=O)O[C@H]1CCOC1)C(C)(C)C)C(=O)C(=O)NC1CC1` [Compound 70] stands > 500 nM.
Under `CCC[C@H](NC(=O)[C@@H]1C[C@]2(CC(c3cccc(Cl)c3)=NO2)CN1C(=O)[C@@H](NC(=O)[C@H]1COc2ccccc2O1)C(C)(C)C)C(=O)C(=O)NC1CC1` [Compound 71] stands > 500 nM; under `CCC[C@H](NC(=O)[C@@H]1C[C@]2(CC(c3cccc(Cl)c3)=NO2)CN1C(=O)[C@@H](NC(=O)CC1CCCC1)C(C)(C)C)C(=O)C(=O)NC1CC1` [Compound 72], 100 to 500 nM.
Under `CCC[C@H](NC(=O)[C@@H]1C[C@]2(CC(c3cccc(Cl)c3)=NO2)CN1C(=O)[C@@H](NC(=O)Cc1sc(C)nc1C)C(C)(C)C)C(=O)C(=O)NC1CC1` [Compound 75] stands 100 to 500 nM; under `CCC[C@H](NC(=O)[C@@H]1C[C@]2(CC(c3cccc(Cl)c3)=NO2)CN1C(=O)[C@@H](NC(=O)NC1CC1)C(C)(C)C)C(=O)C(=O)NC1CC1` [Compound 76], 100 to 500 nM; under `CCC[C@H](NC(=O)[C@@H]1C[C@]2(CC(c3ccc(Cl)c(Cl)c3)=NO2)CN1C(=O)[C@@H](NC(=O)CC1CCOCC1)C(C)(C)C)C(=O)C(=O)NC1CC1` [Compound 78], 100 to 500 nM.
As to `CCC[C@H](NC(=O)[C@@H]1C[C@@]2(CC(c3ccccc3)=NO2)CN1C(=O)c1ccc[nH]1)C(=O)C(=O)NC1CC1` [Compound 80], the Ki is > 500 nM.
On to `CCC[C@H](NC(=O)[C@@H]1C[C@]2(CC(c3cccc(Cl)c3)=NO2)CN1C(=O)[C@@H](NC(=O)CN1CCOCC1)C(C)(C)C)C(=O)C(=O)NC1CC1` [Compound 81], for which the Ki is > 500 nM.
Under `CCC[C@H](NC(=O)[C@@H]1C[C@]2(CC(c3ccc4c(c3)OCO4)=NO2)CN1C(=O)[C@@H](NC(=O)CC1CCOCC1)C(C)(C)C)C(=O)C(=O)NC1CC1` [Compound 82] stands 100 to 500 nM; under `CCC[C@H](NC(=O)[C@@H]1C[C@]2(CC(c3cccc(Cl)c3)=NO2)CN1C(=O)[C@@H](NC(=O)O[C@H]1CCOC1)C(C)(C)C)C(=O)C(=O)NC1CC1` [Compound 83], 100 to 500 nM; under `CCC[C@H](NC(=O)[C@@H]1C[C@]2(CC(c3cccc(Cl)c3)=NO2)CN1C(=O)[C@@H](NC(=O)OCCF)C(C)(C)C)C(=O)C(=O)NC1CC1` [Compound 85], 100 to 500 nM.
As to `CCC[C@H](NC(=O)[C@@H]1C[C@]2(CC(c3cccc(Cl)c3)=NO2)CN1C(=O)[C@@H](NC(=O)CC1CCOCC1)C(C)(C)C)C(=O)C(=O)NC1CC1` [Compound 92], the Ki was 100 to 500 nM.
In the case of `CCC[C@H](NC(=O)[C@@H]1C[C@]2(CC(c3cccc(Cl)c3)=NO2)CN1C(=O)[C@@H](NC(=O)NCC(N)=O)C(C)(C)C)C(=O)C(=O)NC1CC1` [Compound 94] it was < 100 nM.
Under `CCC[C@H](NC(=O)[C@@H]1C[C@]2(CC(c3cc(F)cc(Cl)c3)=NO2)CN1C(=O)[C@@H](NC(=O)CC1CCCCC1)C(C)(C)C)C(=O)C(=O)NC1CC1` [Compound 95] stands 100 to 500 nM; under `CCC[C@H](NC(=O)[C@@H]1C[C@]2(CC(c3ccccc3)=NO2)CN1C(=O)[C@@H](NS(=O)(=O)c1cccc2ccccc12)C(C)(C)C)C(=O)C(=O)NC1CC1` [Compound 101], > 500 nM; under `CCC[C@H](NC(=O)[C@@H]1C[C@]2(CC(c3cccc(Cl)c3)=NO2)CN1C(=O)[C@@H](NC(=O)Cc1ccc(C)c(F)c1)C(C)(C)C)C(=O)C(=O)NC1CC1` [Compound 102], 100 to 500 nM.
`CCC[C@H](NC(=O)[C@@H]1C[C@]2(CC(c3cccc(Cl)c3)=NO2)CN1C(=O)[C@@H](NC(=O)NCC)C1CCCCC1)C(=O)C(=O)NC1CC1` [Compound 103]: the Ki was 100 to 500 nM.
Under `CCC[C@H](NC(=O)[C@@H]1C[C@]2(CC(c3cc(F)cc(F)c3)=NO2)CN1C(=O)[C@@H](NC(=O)O[C@H]1CCOC1)C(C)(C)C)C(=O)C(=O)NC1CC1` [Compound 106] stands > 500 nM.
Turning to `CCC[C@H](NC(=O)[C@@H]1C[C@]2(CC(c3ccccc3)=NO2)CN1C(=O)[C@@H](NC(=O)NCc1ccccc1)C(C)(C)C)C(=O)C(=O)NC1CC1` [Compound 107], the Ki was in the range of 100 to 500 nM.
In the case of `CCC[C@H](NC(=O)[C@@H]1C[C@]2(CC(c3cccc(Cl)c3)=NO2)CN1C(=O)[C@@H](NC(=O)[C@H]1CC[C@@H](OC)CC1)C(C)(C)C)C(=O)C(=O)NC1CC1` [Compound 108] it was 100 to 500 nM.
In the case of `CCC[C@H](NC(=O)[C@@H]1C[C@]2(CC(c3ccc(Cl)c(C)c3)=NO2)CN1C(=O)[C@@H](NC(=O)O[C@H]1CCOC1)C(C)(C)C)C(=O)C(=O)NC1CC1` [Compound 109] it was < 100 nM; in that of `CCC[C@H](NC(=O)[C@@H]1C[C@]2(CC(c3cc(Cl)c(OC)cc3OC)=NO2)CN1C(=O)[C@@H](NC(=O)OCc1ccccc1)C(C)(C)C)C(=O)C(=O)NC1CC1` [Compound 110], 100 to 500 nM.
In the case of `CCC[C@H](NC(=O)[C@@H]1C[C@]2(CC(c3cccc(Cl)c3)=NO2)CN1C(=O)[C@@H](NC(=O)OCCc1ccc(F)cc1)C(C)(C)C)C(=O)C(=O)NC1CC1` [Compound 118] it was > 500 nM; in that of `CCC[C@H](NC(=O)[C@@H]1C[C@]2(CC(c3cccc(Cl)c3)=NO2)CN1C(=O)[C@@H](NC(=O)NCc1cccc(F)c1)C(C)(C)C)C(=O)C(=O)NC1CC1` [Compound 122], 100 to 500 nM; in that of `CCC[C@H](NC(=O)[C@@H]1C[C@]2(CC(c3cccc(Cl)c3)=NO2)CN1C(=O)[C@@H](NC(=O)NCC)C(C)(C)C)C(=O)C(=O)NC1CC1` [Compound 123], < 100 nM.
